Laboratory results: patent US20260000676A1, “CHROMAN DERIVATIVES AS ESTROGEN RECEPTOR DEGRADERS” (THE REGENTS OF THE UNIVERSITY OF MICHIGAN, priority 2022, published 2026)

How the values were obtained:
ERα_LBD(GST) = ERα_LBD(GST) (Homo sapiens (Human), UniProt P03372); assay: LanthaScreen TR-FRET ERα competitive binding assay; settings: read-out: ERα HTRF IC50
Method: • 1. ERα_LBD(GST) protein: 4 nM • 2. Tb Anti-GST: 2 nM • 3. Fluormone ES2 Green tracer: 3 nM • 4. Incubation time: 60 min • 5. DMSO: 1% • 6. Assay buffer: Adding 1M DTT to Nuclear receptor Buffer K for final 5 mM DTT. • 7. ZPE: 1% DMSO • 8. HPE: 1 μM ARV_471 • 9. LanthaScreen® TR-FRET ERα Competitive Binding Assay (ThermoFisher, #A15887)
• 1) Cherry pick 2 μL 10 mM compound stock to column 1 of a 384 intermediate plate • 2) Add 18 μL DMSO to column 1 to dilute compound to 1 mM. • 3) Transfer 10 μL 1 mM compound to column 1 of a LDV plate. • 2) Add 6 μl DMSO to column 2-10 of the LDV plate. • 3) Compounds undergo 3-fold serial dilution (3 μL+6 μL) in DMSO. • 4) Transfer 120 nL compound solution to assay plate. • ZPE: 120 nL 100% DMSO
Prepare complete nuclear receptor buffer K by adding 1 M DTT to nuclear receptor buffer K for a final concentration of 5 mM DTT. Complete nuclear receptor buffer K must be prepared fresh daily. Prepare 2× protein solution using complete nuclear receptor buffer K containing 8 nM ERα_LBD(GST) and 4 nM Tb Anti-GST. Then, prepare 2× Fluormone ES2 Green tracer (6 nM) using complete nuclear receptor buffer K. Add 6 μL 2× Fluormone ES2 green tracer into a compound plate (PerkinElmer 6008289) by dragonfly with one-tips-addition. Subsequently, add 6 μL 2× protein solution into the plate. Briefly and gently mix the 384-well plate on a plate shaker and incubate at room temperature protected from light for 60 min. The plate is sealed with a cover to minimize evaporation. Read the plate at wavelengths of 520 nm and 495 nm. Calculate the TR-FRET ratio by dividing the emission signal at 520 nm by the emission signal at 495 nm. Generate a binding curve by plotting the emission ratio vs. the log [ligand]. To determine the IC50 value, fit the data using XL-fit for a sigmoidal dose-response.

ER [1] = biological target: T1, ER (Homo sapiens (Human), UniProt P03372); assay: In-cell western (ICW) ER degradation assay in MCF-7 cells; format: cell-based; settings: MCF7, 16 hrs; for Dmax: MCF7, maximal ER degradation; for DC50: ER degradation; for MCF7 Dmax %: maximal ER degradation
ER [2] = biological target: T1, ER; assay: In-cell western (ICW) ER degradation assay in T47D cells; format: cell-based; settings: 16 hrs; for DC50: ER degradation; for Dmax / T47D Dmax %: maximal ER degradation
CRBN/DDB1 = CRBN/DDB1 (Homo sapiens (Human), UniProt Q96SW2); assay: HTRF binding assay to CRBN/DDB1; settings: read-out: CRBN HTRF IC50
Method: The binding potency was determined using HTRF assay technology (Perkin Elmer). Compounds were serially diluted in DMSO and 0.2 μL volume was transferred to white 384-well plate.

Sequence of ERα_LBD(GST) (P03372 311-547): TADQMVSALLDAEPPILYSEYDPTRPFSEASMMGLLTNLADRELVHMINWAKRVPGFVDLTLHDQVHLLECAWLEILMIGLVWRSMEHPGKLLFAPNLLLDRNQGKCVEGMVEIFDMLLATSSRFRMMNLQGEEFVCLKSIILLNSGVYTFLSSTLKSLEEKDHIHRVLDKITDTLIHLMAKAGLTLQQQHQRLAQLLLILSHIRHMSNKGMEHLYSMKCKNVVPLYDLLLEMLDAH
T1 sequence (P03372 whole entry): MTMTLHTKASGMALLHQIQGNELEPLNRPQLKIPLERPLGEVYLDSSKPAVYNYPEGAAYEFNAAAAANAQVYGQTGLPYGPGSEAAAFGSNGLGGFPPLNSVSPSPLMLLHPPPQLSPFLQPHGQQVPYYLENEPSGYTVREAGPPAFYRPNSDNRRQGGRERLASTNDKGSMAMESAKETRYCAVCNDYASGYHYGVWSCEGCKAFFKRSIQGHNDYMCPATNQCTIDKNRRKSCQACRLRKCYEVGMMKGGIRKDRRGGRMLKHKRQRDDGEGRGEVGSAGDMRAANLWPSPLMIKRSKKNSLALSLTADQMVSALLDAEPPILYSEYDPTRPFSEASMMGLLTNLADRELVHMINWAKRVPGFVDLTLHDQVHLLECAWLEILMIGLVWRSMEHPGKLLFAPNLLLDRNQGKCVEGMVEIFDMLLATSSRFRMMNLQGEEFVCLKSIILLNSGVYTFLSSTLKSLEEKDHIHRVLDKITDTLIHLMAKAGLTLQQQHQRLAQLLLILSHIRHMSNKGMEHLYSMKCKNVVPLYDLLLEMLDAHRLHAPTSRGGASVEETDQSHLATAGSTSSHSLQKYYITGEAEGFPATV
Sequence of CRBN/DDB1 (Q96SW2 whole entry): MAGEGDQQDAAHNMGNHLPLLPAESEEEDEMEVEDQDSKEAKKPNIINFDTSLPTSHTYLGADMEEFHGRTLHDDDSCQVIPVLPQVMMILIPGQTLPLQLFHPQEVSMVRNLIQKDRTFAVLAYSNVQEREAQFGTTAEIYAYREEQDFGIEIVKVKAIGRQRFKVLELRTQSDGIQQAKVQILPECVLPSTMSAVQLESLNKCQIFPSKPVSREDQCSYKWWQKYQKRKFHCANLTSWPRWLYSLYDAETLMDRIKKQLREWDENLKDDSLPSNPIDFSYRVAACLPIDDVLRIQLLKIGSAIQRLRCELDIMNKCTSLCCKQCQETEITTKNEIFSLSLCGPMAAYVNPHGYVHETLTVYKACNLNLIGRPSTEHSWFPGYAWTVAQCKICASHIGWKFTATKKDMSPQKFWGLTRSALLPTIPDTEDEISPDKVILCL
Sequence of CRBN/DDB1 (Q16531 whole entry partner): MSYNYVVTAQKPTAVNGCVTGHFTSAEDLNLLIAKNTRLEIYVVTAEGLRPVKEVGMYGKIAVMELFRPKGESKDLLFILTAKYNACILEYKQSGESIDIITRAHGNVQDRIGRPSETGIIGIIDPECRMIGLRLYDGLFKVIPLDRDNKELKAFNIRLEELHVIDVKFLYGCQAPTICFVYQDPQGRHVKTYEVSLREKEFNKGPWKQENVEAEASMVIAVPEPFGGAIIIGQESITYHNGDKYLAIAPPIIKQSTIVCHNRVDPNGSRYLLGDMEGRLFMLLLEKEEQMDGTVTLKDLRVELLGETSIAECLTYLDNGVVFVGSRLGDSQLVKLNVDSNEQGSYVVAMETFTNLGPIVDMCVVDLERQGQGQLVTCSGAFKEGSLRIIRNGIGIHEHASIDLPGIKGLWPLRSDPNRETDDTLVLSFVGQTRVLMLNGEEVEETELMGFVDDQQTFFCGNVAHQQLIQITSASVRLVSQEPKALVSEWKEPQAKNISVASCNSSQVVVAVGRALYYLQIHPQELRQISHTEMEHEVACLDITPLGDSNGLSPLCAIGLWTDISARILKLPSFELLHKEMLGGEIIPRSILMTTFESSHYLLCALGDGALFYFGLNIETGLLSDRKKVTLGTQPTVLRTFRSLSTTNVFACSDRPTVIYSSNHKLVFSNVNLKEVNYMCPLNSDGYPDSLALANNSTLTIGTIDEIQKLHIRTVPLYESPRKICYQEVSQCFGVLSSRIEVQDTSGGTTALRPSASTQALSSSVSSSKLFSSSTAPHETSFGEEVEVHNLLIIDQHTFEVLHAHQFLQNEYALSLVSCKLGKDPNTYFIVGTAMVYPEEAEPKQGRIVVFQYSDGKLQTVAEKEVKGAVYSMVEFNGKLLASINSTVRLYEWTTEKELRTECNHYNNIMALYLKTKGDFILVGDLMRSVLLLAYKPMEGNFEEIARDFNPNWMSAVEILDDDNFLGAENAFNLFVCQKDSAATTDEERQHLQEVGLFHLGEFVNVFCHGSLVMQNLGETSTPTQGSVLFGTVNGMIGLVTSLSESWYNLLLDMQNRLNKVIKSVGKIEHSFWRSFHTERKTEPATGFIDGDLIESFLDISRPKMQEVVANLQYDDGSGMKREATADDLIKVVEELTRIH

| SMILES | IC50 (ERα_LBD(GST)) [µM] | Dmax (ER [1]) [%] | DC50 (ER [2]) [µM] | Dmax (ER [2]) [%] | DC50 (ER [1]) [µM] | IC50 (CRBN/DDB1) [µM] | T47D Dmax % (ER [2]) | MCF7 Dmax % (ER [1]) |
| --- | --- | --- | --- | --- | --- | --- | --- | --- |
| O=C1CCC(N2Cc3c(ccc4c3OC[C@H]3CN(CC5CCN(c6ccc([C@@H]7c8ccc(O)cc8OC[C@@H]7c7ccccc7)cc6)CC5)CCN43)C2=O)C(=O)N1 (single isomer, unassigned) [Compound A8, 3-((R)-7-((1-(4-((3S,4R)-7-hydroxy-3-phenylchroman-4-yl)phenyl)piperidin-4-yl)methyl)-1-oxo-1,3,5,5a,6,7,8,9-octahydro-2H-pyrazino[1′,2′:4,5][1,4]oxazino[2,3-e]isoindol-2-yl)piperidine-2,6-dione] | < 0.005 | 50 to 75 |  |  |  |  |  |  |
| O=C1CCC(N2Cc3cc4c(cc3C2=O)OC[C@@H]2CN(CC3CC5(CCN(c6ccc([C@H]7c8ccc(O)cc8OC[C@H]7c7ccccc7)cc6)CC5)C3)CCN42)C(=O)N1 (single isomer, unassigned) [Compound A27] | < 0.005 | 50 to 75 |  |  |  |  |  |  |
| COc1cc(C(=O)N[C@@H]2CCC(=O)NC2=O)ncc1N1CCN(CC2CCC3(CC2)CN(c2ccc([C@H]4c5ccc(O)cc5OC[C@H]4c4ccccc4)cc2)C3)CC1 (single isomer, unassigned) [Compound A144] |  | 25 to 50 | > 0.1 | < 25 | 0.01 to 0.1 | 0.5 to 5 |  |  |
| O=C1CCC(N2Cc3cc4c(cc3C2=O)OC[C@@H]2CN(CC3CCC5(CC3)CN(c3ccc([C@@H]6c7ccc(O)cc7OC[C@@H]6c6ccccc6)cc3)C5)CCN42)C(=O)N1 (stereo partly drawn) [Compound A63, 3-((S)-3-((2-(4-((3S,4R)-7-hydroxy-3-phenylchroman-4-yl)phenyl)-2-azaspiro[3.5]nonan-7-yl)methyl)-8-oxo-1,2,3,4,4a,5,8,10-octahydro-9H-pyrazino[1′,2′:4,5][1,4]oxazino[2,3-f]isoindol-9-yl)piperidine-2,6-dione] |  |  | > 0.1 |  | > 0.1 | 0.5 to 5 | D (“D”; <25%) | D (“D”; <25%) |
| O=C1CCC(NC(=O)c2ccc(N3CCN(CC4CC5(CCN(c6ccc([C@@H]7c8ccc(O)cc8OC[C@@H]7c7ccccc7)cc6)CC5)C4)CC3)cn2)C(=O)N1 (stereo partly drawn) [Compound A85, N-(2,6-dioxopiperidin-3-yl)-5-(4-((7-(4-((3S,4R)-7-hydroxy-3-phenylchroman-4-yl)phenyl)-7-azaspiro[3.5]nonan-2-yl)methyl)piperazin-1-yl)picolinamide] |  | 50 to 75 | 0.001 to 0.01 | 50 to 75 | < 0.001 | > 5 |  |  |
| O=C1CCC(N2Cc3cc4c(cc3C2=O)OC[C@@H]2CN(CC3CCN(c5ccc([C@H]6c7ccc(O)cc7OC[C@H]6c6ccccc6)cn5)CC3)CCN42)C(=O)N1 (single isomer, unassigned) [Compound A61] |  | 25 to 50 | 0.001 to 0.01 | 50 to 75 | 0.001 to 0.01 | 0.05 to 0.5 |  |  |
| O=C1CCC(Nc2ccc(C3CCN(CC4CC5(CCN(c6ccc([C@@H]7c8ccc(O)cc8OC[C@@H]7c7ccccc7)cc6)CC5)C4)CC3)c(F)c2)C(=O)N1 (single isomer, unassigned) [Compound A75] |  | 25 to 50 | 0.001 to 0.01 | 50 to 75 | < 0.001 | 0.05 to 0.5 |  |  |
| O=C1CCC(NC(=O)c2ccc(N3CCN(CC4CCN(c5ccc([C@@H]6c7ccc(O)cc7OC[C@@H]6c6ccccc6)cc5)CC4)CC3)cn2)C(=O)N1 (single isomer, unassigned) [Compound A88] |  | 50 to 75 | 0.001 to 0.01 | 50 to 75 | 0.001 to 0.01 | > 5 |  |  |
| COc1cc(N2CCC(CN3CCC4(CC3)COc3c4ccc4c3CN(C3CCC(=O)NC3=O)C4=O)CC2)ccc1[C@H]1c2ccc(O)cc2OC[C@H]1c1ccccc1 (stereo partly drawn) [Compound A135, 3-(1′-((1-(4-((3R,4S)-7-hydroxy-3-phenylchroman-4-yl)-3-methoxyphenyl)piperidin-4-yl)methyl)-6-oxo-6,8-dihydro-2H,7H-spiro[furo[2,3-e]isoindole-3,4′-piperidin]-7-yl)piperidine-2,6-dione] |  | 25 to 50 | < 0.001 | 25 to 50 | < 0.001 | < 0.05 |  |  |
| O=C1CC[C@H](N2Cc3c(ccc4c3OC[C@H]3CN(CC5CC6(CCN(c7ccc([C@@H]8c9ccc(O)cc9OC[C@@H]8c8ccccc8)cc7)CC6)C5)CCN43)C2=O)C(=O)N1 (single isomer, unassigned) [Compound A90] |  |  | < 0.001 | 50 to 75 | 0.001 to 0.01 | > 5 |  | B (“B”: >50% and <75%) |
| CC(C(=O)N1Cc2cc3c(cc2C1)C(=O)N(C1CCC(=O)NC1=O)C3=O)N1CCC2(CCN(c3ccc([C@H]4c5ccc(O)cc5OC[C@H]4c4ccccc4)cc3)CC2)CC1 (single isomer, unassigned) [Compound A57] |  | < 25 | > 0.1 | < 25 | > 0.1 | > 5 |  |  |
| O=C1CCC(NC(=O)c2ccc3c(n2)OC[C@H]2CN(CC4CCN(c5ccc([C@H]6c7ccc(O)cc7OC[C@H]6c6ccccc6)cc5F)CC4)CCN32)C(=O)N1 (stereo partly drawn) [Compound A103, (4aR)-N-(2,6-dioxopiperidin-3-yl)-3-((1-(2-fluoro-4-((3R,4S)-7-hydroxy-3-phenylchroman-4-yl)phenyl)piperidin-4-yl)methyl)-1,2,3,4,4a,5-hexahydropyrazino[1,2-d]pyrido[2,3-b][1,4]oxazine-8-carboxamide] |  | 50 to 75 | 0.001 to 0.01 | 50 to 75 | 0.001 to 0.01 | 0.5 to 5 |  |  |
| COc1cc(N2CCC3(CC2)CC(CN2CCC4(CC2)COc2c4ccc4c2CN(C2CCC(=O)NC2=O)C4=O)C3)c(F)cc1[C@H]1c2ccc(O)cc2OC[C@H]1c1ccccc1 (stereo partly drawn) [Compound A131, 3-(1′-((7-(2-fluoro-4-((3R,4R)-7-hydroxy-3-phenylchroman-4-yl)-5-methoxyphenyl)-7-azaspiro[3.5]nonan-2-yl)methyl)-6-oxo-6,8-dihydro-2H,7H-spiro[furo[2,3-e]isoindole-3,4′-piperidin]-7-yl)piperidine-2,6-dione] |  |  | 0.001 to 0.01 |  | 0.001 to 0.01 | < 0.05 | B (“B”: >50% and <75%) | B (“B”: >50% and <75%) |
| COc1cc(N2CCC(CN3CCN(c4ccc(C(=O)NC5CCC(=O)NC5=O)nc4)CC3)CC2)ccc1[C@H]1c2ccc(O)cc2OC[C@H]1c1ccccc1 (single isomer, unassigned) [Compound A124] |  | 50 to 75 | < 0.001 | 50 to 75 | < 0.001 | > 5 |  |  |
| O=C1CCC(N2Cc3c(ccc4c3OC[C@@H]3CN(CC5CC6(CCN(c7ccc([C@H]8c9ccc(O)cc9OC[C@H]8c8ccccc8)cc7)CC6)C5)CCN43)C2=O)C(=O)N1 (single isomer, unassigned) [Compound A21] | < 0.005 |  |  |  |  |  |  |  |
| O=C1CC[C@@H](N2Cc3cc4c(cc3C2=O)OC[C@@H]2CN(C[C@@H]3COC5(CCN(c6ccc([C@H]7c8ccc(O)cc8OC[C@H]7c7ccccc7)cc6)CC5)C3)CCN42)C(=O)N1 [Compound A151, (R)-3-((S)-3-(((R)-8-(4-((3R,4S)-7-hydroxy-3-phenylchroman-4-yl)phenyl)-1-oxa-8-azaspiro[4.5]decan-3-yl)methyl)-8-oxo-1,2,3,4,4a,5,8,10-octahydro-9H-pyrazino[1′,2′:4,5][1,4]oxazino[2,3-f]isoindol-9-yl)piperidine-2,6-dione] |  | 50 to 75 | < 0.001 | 50 to 75 | < 0.001 | 0.05 to 0.5 |  |  |
| Cn1c(=O)n(C2CCC(=O)NC2=O)c2ccc(C3CCN(CC4CC5(CCN(c6ccc([C@@H]7c8ccc(O)cc8OC[C@@H]7c7ccccc7)cc6)CC5)C4)CC3)cc21 (single isomer, unassigned) [Compound A73] |  | 50 to 75 | < 0.001 | 50 to 75 | < 0.001 | < 0.05 |  |  |
| O=C1CCC(NC(=O)c2ccc3c(n2)OC[C@H]2CN(CC4CC5(CCN(c6ccc([C@@H]7c8ccc(O)cc8OC[C@@H]7c7ccccc7)cc6)CC5)C4)CCN32)C(=O)N1 (stereo partly drawn) [Compound A93, (4aR)-N-(2,6-dioxopiperidin-3-yl)-3-((7-(4-((3S,4R)-7-hydroxy-3-phenylchroman-4-yl)phenyl)-7-azaspiro[3.5]nonan-2-yl)methyl)-1,2,3,4,4a,5-hexahydropyrazino[1,2-d]pyrido[2,3-b][1,4]oxazine-8-carboxamide] |  | 50 to 75 | < 0.001 | 50 to 75 | 0.001 to 0.01 | 0.5 to 5 |  |  |
